According to patent publication US20160264593A1 (priority 2013, published 2016):
Several values for one entry are separate records, joined by “and”; a condition that tells them apart may be missing. Identical values can stand only once.

Assays:
[1] = test system: PP2A; assay: PP2A activity in mouse brains after IP dosing (PP2A immunoprecipitation phosphatase assay, malachite green); format: in vivo, Balb/c mice; design: Average Conc. (group of 3 mice): unit not given here; settings: for Average Conc. (group of 3 mice) / Average Relative Activity (group, vehicle = 100) / Conc. (phosphate, single reading, per mouse) / Mean Conc. (per mouse) / Mean Conc. less IgG blank (per mouse) / Relative Conc. (per mouse, to vehicle) / Relative PP2A Activity (per mouse, vehicle = 100): brain
Description: (§1) Coomassie (Bradford) Protein Assay Kit (Pierce); PP2A Immunoprecipitation Phosphatase Assay Kit (Millipore); Lysate preparation for low endogenous phosphate: 20 mM imidazole-HCl, 2 mM EDTA, 2 mM EGTA, 1 mM PMSF, 1 mM benzamidine, 10 ug/ml each of aprotinin, leupeptin, antipain, soybean trypsin inhibitor; Normal Mouse IgG (Millipore); Okadaic acid (OA) (Tocris); DMSO (Sigma).
(§2) • Species: Mus Musculus • Strain: Balb/c mice • Age: 6-8 weeks • Sex: female • Body weight: 18-22 g • Vendor: Shanghai Laboratory Animal Center, Shanghai, China; • Number of animals: 66 Balb/c mice plus spare
(§3) The mice were kept in laminar flow rooms at constant temperature and humidity with 4 animals in each cage. • Temperature: 20-25 • Humidity: 40-70%. • Light cycle: 12 hours light and 12 hours dark. • Cages: Made of polycarbonate. The size is 29 cm×17.5 cm×12 cm (L×w×H). The bedding material is wood debris, which is changed once per week. • Diet: Animals had free access to irradiation sterilized dry granule food during the entire study period. • Water: Animals had free access to sterile drinking water. • Cage identification: the identification labels for each cage contained the following information: number of animals, sex, strain, date arrival, treatment, study number, group number, and the starting date of the treatment. • Animal identification: Animals were marked by ear punch.
(§4) All the procedures related to animal handling, care, and the treatment in this study were performed according to guidelines approved by the Institutional Animal Care and Use Committee (IACUC) of WuXi AppTec (Shanghai), following the guidance of the Association for Assessment and Accreditation of Laboratory Animal Care (AAALAC). At the time of routine monitoring, the animals were checked and recorded for any effects of tumor growth on normal behavior such as mobility, food and water consumption (by looking only), body weight gain/loss, eye/hair matting and any other abnormal effect.
(§5) 1. Proper amount of the compounds were weighed. 2. The compounds were dissolved in 4% sterile sodium bicarbonate. 3. All of the compounds should be well dissolved and clear. 4. The compounds should be kept cold once in solution and injected within an hour. 5. The mice were administered intraperitoneally according to their body weights, 20 g mouse was treated with 0.2 ml compound solution. 6. Mice were treated with vehicle and compounds according to Table 1. 7. 3 hours after the dose, 3 mice from each group were euthanized by
(§6) CO2 exposure, and the brains and left lobe of livers were taken and snap-frozen in liquid nitrogen immediately. 6 hours after the dose, the other 3 mice from each group were euthanized by CO2 exposure, and the brains and left lobe of livers were taken and snap-frozen in liquid nitrogen immediately.
(§7) Preparation of malachite green phosphate detection solution Added […] of Solution B to each 1 mL of Solution A, kept at room temperature during use. […] of mixed solution AB is used per assay well.
(§8) Diluted 125 mL Phosphate Standard (Solution C) with 1125 mL of distilled water to make 0.1 mM working solution. The solution was used to prepare a phosphate standard curve as described in the table below.
(§9) 1. 25 μL of each phosphate standards was transferred to wells of microliter plate. 2. Added 100 μL of Malachite Green Solution AB. Mixed carefully without creating bubbles. 3. Cultured for 15 minutes at RT. 4. Measured absorbance at a wavelength between 650 nm in a microliter plate reader.
(§10) 1. Dissolved 1 mg Threonine Phosphopeptide (Catalog #12-219) in 1.10 mL of distilled water to prepare a 1 mM solution. 2. Aliquot peptide solution and stored at ˜20° C. as necessary.
(§11) 1. Mouse brain or liver was homogenized using lysis buffer (25 g/L), centrifuged at 12000 g for 10 minutes at […], and the supernatants were collected. 2. The protein was quantitated, and 240 μg of mouse brain or liver lysate was taken to assay phosphatase activity. 3. […]

[2] = test system: PP2A; assay: PP2A activity in mouse livers after IP dosing (PP2A immunoprecipitation phosphatase assay, malachite green); format: in vivo, Balb/c mice; settings: for Average Conc. (group of 3 mice) / Average Relative Activity (group, vehicle = 100) / Conc. (phosphate, single reading, per mouse) / Mean Conc. (per mouse) / Mean Conc. less IgG blank (per mouse) / Relative Conc. (per mouse, to vehicle) / Relative PP2A Activity (per mouse, vehicle = 100): liver
Description: as §1, §2, §3, §4, §5, §6, §7, §8, §9, §10, §11

[3] = high dose IP (mpk: 100 1.5, 113 2.2, 151 1.6, 153 1.7, 157 2.0), 3 h
[4] = high dose IP (mpk: 100 1.5, 113 2.2, 151 1.6, 153 1.7, 157 2.0), 6 h
[5] = low dose IP (mpk: 100 0.75, 113 1.1, 151 0.8, 153 0.85, 157 1.0), 3 h
[6] = low dose IP (mpk: 100 0.75, 113 1.1, 151 0.8, 153 0.85, 157 1.0), 6 h
[7] = high dose IP (mpk: 100 1.5, 113 2.2, 151 1.6, 157 2.0), 3 h
[8] = high dose IP (mpk: 100 1.5, 113 2.2, 151 1.6, 157 2.0), 6 h

In the case of `CN1CCN(C(=O)C2C(C(=O)OCC(Cl)(Cl)Cl)[C@H]3CC[C@@H]2O3)CC1` (stereo partly shown) [Compound 113], the “Average Conc. (group of 3 mice)” value [1, 3] is reported as 892.56, the “Average Relative Activity (group, vehicle = 100)” value (“Average Relative Activity” for short) [1, 3] is reported as 60.76 and the “Conc. (phosphate, single reading, per mouse)” value [1, 3] is reported as 1058.59 and 1029.91 and 726.72 and 714.92 and 925.07 and 938.33. The “Mean Conc. (per mouse)” value [1, 3] was 1044.25 and 720.82 and 931.70, the “Mean Conc. less IgG blank (per mouse)” value [1, 3] was 1037.88 and 714.45 and 925.33 and the “Relative Conc. (per mouse, to vehicle)” value [1, 3] was 0.71 and 0.49 and 0.64. The “Relative PP2A Activity (per mouse, vehicle = 100)” value [1, 3] was 70.65 and 48.63 and 62.99, the “Average Conc. (group of 3 mice)” value [1, 4] was 897.74 and the “Average Relative Activity” value [1, 4] was 64.36. The “Conc. (phosphate, single reading, per mouse)” value [1, 4] was 366.91 and 317.74 and 1221.50 and 1051.60 and 1382.49 and 1084.37, the “Mean Conc. (per mouse)” value [1, 4] was 342.32 and 1136.55 and 1233.43 and the “Mean Conc. less IgG blank (per mouse)” value [1, 4] was 335.96 and 1130.19 and 1227.07. The “Relative Conc. (per mouse, to vehicle)” value [1, 4] was 0.24 and 0.82 and 0.89, the “Relative PP2A Activity (per mouse, vehicle = 100)” value [1, 4] was 24.09 and 81.03 and 87.97 and the “activity of PP2A in brains (statement)” value ([1]; high dose IP, 3 h) was “most potent”. For the same compound, the “Average Conc. (group of 3 mice)” value [1, 5] was 1540.65, the “Average Relative Activity” value [1, 5] was 104.88 and the “Conc. (phosphate, single reading, per mouse)” value [1, 5] was 1602.05 and 1620.37 and 1450.70 and 1578.91 and 1521.79 and 1508.30. For the same compound, the “Mean Conc. (per mouse)” value [1, 5] was 1611.21 and 1514.81 and 1515.05, the “Mean Conc. less IgG blank (per mouse)” value [1, 5] was 1604.84 and 1508.44 and 1508.68 and the “Relative Conc. (per mouse, to vehicle)” value [1, 5] was 1.10 and 1.04 (2×). The “Relative PP2A Activity (per mouse, vehicle = 100)” value [1, 5] was 109.24 and 102.68 and 102.70, the “Average Conc. (group of 3 mice)” value [1, 6] was 1212.05 and the “Average Relative Activity” value [1, 6] was 86.90. The “Conc. (phosphate, single reading, per mouse)” value [1, 6] was 1379.36 and 1456.24 and 1108.96 and 1143.66 and 1072.56 and 1149.69, the “Mean Conc. (per mouse)” value [1, 6] was 1417.80 and 1126.31 and 1111.12 and the “Mean Conc. less IgG blank (per mouse)” value [1, 6] was 1411.44 and 1119.94 and 1104.76. For the same compound, the “Relative Conc. (per mouse, to vehicle)” value [1, 6] was 1.02 and 0.81 and 0.80, the “Relative PP2A Activity (per mouse, vehicle = 100)” value [1, 6] was 101.19 and 80.29 and 79.21 and the “Average Conc. (group of 3 mice)” value [2, 7] was 138.31. The “Average Relative Activity” value [2, 7] was 35.3, the “Conc. (phosphate, single reading, per mouse)” value [2, 7] was 200.67 and 204.55 and 192.25 and 216.22 and 155.1 and 163.31 and the “Mean Conc. (per mouse)” value [2, 7] was 202.61 and 204.23 and 159.21. For the same compound, the “Mean Conc. less IgG blank (per mouse)” value [2, 7] was 152.24 and 153.86 and 108.83, the “Relative Conc. (per mouse, to vehicle)” value [2, 7] was 0.39 (2×) and 0.28 and the “Relative PP2A Activity (per mouse, vehicle = 100)” value [2, 7] was 38.8 and 39.21 and 27.74. The “Average Conc. (group of 3 mice)” value [2, 8] was 104.16, the “Average Relative Activity” value [2, 8] was 26.6 and the “Conc. (phosphate, single reading, per mouse)” value [2, 8] was 246.88 and 269.98 and 80.17 and 78.45 and 124.87 and 126.82. The “Mean Conc. (per mouse)” value [2, 8] was 258.43 and 79.31 and 125.84, the “Mean Conc. less IgG blank (per mouse)” value [2, 8] was 208.06 and 28.94 and 75.47 and the “Relative Conc. (per mouse, to vehicle)” value [2, 8] was 0.53 and 0.07 and 0.19. For the same compound, the “Relative PP2A Activity (per mouse, vehicle = 100)” value [2, 8] was 53.13 and 7.39 and 19.27, the “activity of PP2A in livers as compared with vehicle (statement)” value (“activity … compared with vehicle (statement)” below) ([2]; high dose IP, 3 h) was “significantly inhibited” and the “activity … compared with vehicle (statement)” value ([2]; high dose IP, 6 h post treatment) was “significantly inhibited”. For the same compound, the “Average Conc. (group of 3 mice)” value [2, 5] was 179.91, the “Average Relative Activity” value [2, 5] was 45.9 and the “Conc. (phosphate, single reading, per mouse)” value [2, 5] was 258.54 and 266.31 and 211.9 and 190.3 and 226.36 and 228.31. For the same compound, the “Mean Conc. (per mouse)” value [2, 5] was 262.43 and 201.1 and 227.34, the “Mean Conc. less IgG blank (per mouse)” value [2, 5] was 212.05 and 150.73 and 176.96 and the “Relative Conc. (per mouse, to vehicle)” value [2, 5] was 0.54 and 0.38 and 0.45. The “Relative PP2A Activity (per mouse, vehicle = 100)” value [2, 5] was 54.04 and 38.41 and 45.1, the “Average Conc. (group of 3 mice)” value [2, 6] was 212.74 and the “Average Relative Activity” value [2, 6] was 54.3. The “Conc. (phosphate, single reading, per mouse)” value [2, 6] was 229.82 and 254.44 and 279.7 and 291.58 and 266.31 and 256.81, the “Mean Conc. (per mouse)” value [2, 6] was 242.13 and 285.64 and 261.56 and the “Mean Conc. less IgG blank (per mouse)” value [2, 6] was 191.76 and 235.27 and 211.19. For the same compound, the “Relative Conc. (per mouse, to vehicle)” value [2, 6] was 0.49 and 0.6 and 0.54, the “Relative PP2A Activity (per mouse, vehicle = 100)” value [2, 6] was 48.97 and 60.08 and 53.93 and the “activity … compared with vehicle (statement)” value ([2]; low dose IP, 3 h) was “significantly inhibited”. The “activity … compared with vehicle (statement)” value ([2]; low dose IP, 6 h) was “significantly inhibited”.
